Source: US11058654B2, “Compositions and methods for the treatment of hemoglobinopathies and thalassemias” (AXCELLA HEALTH INC., priority 2018, dated 2021)

How the values were obtained:
[1] = Plasma pharmacokinetics after oral gavage in male Sprague-Dawley rats; format: in vivo; set-up: AUC(0-t): concentration or dose not given beside the values; details: rat, plasma, Mean, oral gavage of RCitNacQCarLHKVS, male Sprague-Dawley rats; for AUC(0-t): read-out: AUC0-5 h; for Cmax: read-out: Cmax; for Tmax: read-out: Tmax
Description: A pharmacokinetic (PK) analysis was performed on plasma concentrations of various combinations of amino acid compounds administered by oral gavage to male Sprague-Dawley rats. Four animals were dosed with RCitNacQCarLHKVS, a test article comprising ten amino acid components: arginine, citrulline, N-acetylcysteine, glutamine, carnitine, leucine, histidine, lysine, valine, and serine (Table 19). Animals were fasted for 2 hours prior to dose administration. Plasma samples were taken immediately pre-dose and 0.5, 1, 2, 3, 4, and 5 hours post-dose.
Bioanalysis of collected plasma samples for amino acid content was performed at Axcella Health using an LC-MS method (Section 2.1). Bioanalytical data were analyzed using noncompartmental analysis with Phoenix® WinNonLin® (v8.1).
An LC/MS method utilizing HILIC chromatography and high-resolution mass spectrometry was used to quantify amino acids in rat plasma. The samples were prepared by protein precipitation and spiked with stable-labeled amino acid internal standard for each analyte. […] QCs, spiked into rat plasma, were utilized to assess the accuracy of the method.
PK parameters of test article components were determined from individual rat plasma concentration-time data by employing a noncompartmental approach using Phoenix WinNonlin® (Version 8.1) software. Nominal times were used to calculate the toxicokinetic parameters. […] This program analyzed data using the standard methods described by Gibaldi and Perrier (see M. Gibaldi and D. Perrier, Pharmacokinetics, 2nd edition, New York: Marcel-Dekker, Inc.; 1982.).

[2] = system: RBCs of healthy whole blood; assay: RBC deformability (LORRCA elongation index), ex vivo TBHP oxidation of healthy whole blood; format: cell-based, human; details: for EI over vehicle control, ½ EImax and EImax: healthy donor 2, single amino acid treatments, in words
Source text: Whole blood from healthy African American and/or Hispanic donors was obtained from Research Blood Components, LLC based on the following donor selection criteria: Adult age (between 18 and 50 years), normal BMI (<30), and absence of other confounding clinical conditions. Whole blood from SCD donors were obtained from BioIVT based on the following donor selection criteria: Patients with genotypes HbSS, HbSC, HbS/β^0 and at least 1-2 months gap since last blood transfusion. Whole blood was shipped on ice on the same day as blood draw. Upon receipt, the blood sample was aliquoted and stored in the refrigerator until used for studies.
RBC deformability measurements were conducted with the Laser Optical Rotational Red Cell Analyzer (LORRCA) from RR Mechatronics in a temperature-controlled environment (37° C.). Briefly, an even layer of RBCs suspended in polyvinylpyrrolidone (PVP) is subjected to shear stress gradient (0.3 to 30 Pa) through two concentric cylinders and the resulting changes in RBC shape or deformability are measured by a laser beam diffraction pattern. The captured images of RBC shape in response to increasing shear stress are then analyzed by the LORRCA program to calculate Elongation Index (EI).
Healthy RBCs have higher deformability≥0.5 EI and SCD RBCs have lower deformability or EI values as studied by LORRCA ektacytometry in the field. […] The induced hemolysis model in this disclosure involves use of tert-butyl hydroperoxide (TBHP) to lower EI of RBCs.
The ex vivo hemolysis study disclosed here involves overnight treatment of whole blood with vehicle as a control and specific amino acids followed by rapid oxidation (5 min) with TBHP. Method for oxidation of whole blood with tert-butyl hydroperoxide has been used in prior literature (Diederich L, et al, Front Physiol. 2018 May 11; 9:332). RBC deformability or shape changes are then measured with LORRCA ektacytometry.
Whole blood aliquots stored in the fridge were brought up to room temperature while gently shaking on a rocker at low speed for an hour to ensure gradual and uniform suspension of red blood cells prior to deformability measurements. Vehicle control used in the study was 1× Dulbecco's […]) and amino acids disclosed herein were added (at either final […] or 2.5 mM concentration as indicated) to corresponding vehicle and amino acid treatment conditions. The samples were then incubated overnight at 37° C. Next day, 25 μL of whole blood was taken from each treatment condition and added to 5 mL Elon ISO viscous solution from RR Mechatronics. The sample was inverted 15-20 times to ensure proper mixing of the treated RBCs with the Elon ISO solution followed by loading the sample on LORRCA and capturing RBC deformability or shape measurements over the applied shear gradient. The remaining whole blood treatments were returned to incubator (37° C.) until deformability measurements were completed for all treatments. To the remaining whole blood treatment samples, TBHP solution (5.0-6.0 M in Decane, Sigma) was added at 2.5 mM final concentration from a 100 mM freshly prepared stock and incubated for further 5 min at 37° C. 25 μL of this TBHP-treated sample was immediately removed at the end of the 5 min incubation and added to the Elon ISO solution for RBC deformability measurement after oxidation. Included in the Tables 13-15 are EI measurements at ½ EImax shear stress 1.69 Pa and EImax shear stress 30 Pa from these studies and FIG. 1 captures EI measurements for all shear stress points for the indicated treatment conditions.

[3] = system: sickle cell disease patient blood; assay: Reactive oxygen species (DCF fluorescence, H2O2) in sickle cell disease patient blood; format: cell-based, human; details: treated with H2O2 and untreated in DPBS
Description: (§1) Whole blood samples were appropriately diluted in Ca^2+- and Mg^2+-free Dulbecco's phosphate buffered saline (DPBS, Life Technologies) and the concentration of erythrocytes (RBC/ml) was measured on a Cellometer K2 Fluorescent Viability Cell Counter according to the manufacturer's RBC/AOPI protocol (Nexcelom Biosciences).
(§2) Cells were then diluted to 1*10^6 RBC/ml into either prewarmed 37° C. […] 2′-7′-dichlorofluorescin diacetate (DCF, Millipore Sigma), 20 mM in dimethyl sulfoxide (DMSO, Fisher) were added to a working concentration of 100 μM. Cells were incubated with dye for 15 minutes at 37° C., 5% CO2 in a tissue culture incubator, washed once, and resuspended in the 0.9 volumes of the same prewarmed 37° C. buffer with 5 minute spins at 500× g, accel/decal=5 in a swing arm centrifuge (Beckman Coulter). […] Where possible due to solubility constrains, pH-7.4-adjusted stock solutions of amino acids were used. Wells were mixed by pipetting and plates incubated at 37° C., 5% CO2 in a tissue culture incubator for 30 minutes. Optionally, 40 mM H2O2(Millipore Sigma) freshly prepared in the same buffer was added to bring the concentration to 2 mM, wells mixed by pipetting, and plates were incubated an additional 30, 60, 120, or 240 minutes before fluorescence measurement of ROS signal on a Synergy H4 (BioTek) microplate reader with excitation=488 nm and emission=530 nm, and gain either set to autogain, 75, or 100.

[4] = system: whole blood of healthy control donors; assay: Reactive oxygen species (DCF fluorescence, H2O2) in whole blood of healthy controls; format: cell-based, human; details: healthy control donors; treated with H2O2; dose-responsive
Description: as §1, §2

Row | SMILES | AUC(0-t) [1] | Cmax [1] | Tmax [1] | EI over vehicle control, ½ EImax and EImax [2] | ROS measured in whole blood [3] | ROS measured in whole blood [4] | effectiveness among all treatment groups (EI and fold change relative to vehicle) ([2]; healthy donor 2, in words)
1 | N=C(N)NCCC[C@H](N)C(=O)O [Arginine] | 2210 µM·h | 565 µM | 82.8 min | higher than the vehicle |  |  | 
2 | CC(=O)N[C@@H](CS)C(=O)O [N-Acetyl Cysteine, N-acetylcysteine] |  |  |  | higher than the vehicle | reduced ROS | reduced ROS | 
3 | NC(=O)CC[C@H](N)C(=O)O [Glutamine] | 2370 µM·h | 605 µM | 30 min | higher than the vehicle |  |  | least effective
